From patent US10934263B2, “Charged ion channel blockers and methods for use” (Nocion Therapeutics, Inc., priority 2019, dated 2021)
Several values for one entry are separate records, joined by “and”; a condition that tells them apart may be missing. Equal entries are not always repeated.

Columns and labels:
NaV1.7 [1] = biological target: T1, NaV1.7 (Homo sapiens, UniProt Q15858); test: Whole cell patch clamp, internal block of NaV1.7 current (compound in internal solution); type: cell-based; settings: % inhibition at 10 μM, compound applied internally, manual patch clamp; read-out: Nav1.7 Intracellular Inhibition
T1 construct: expressed in transfected cells; tetracycline-inducible, kept under hygromycin and blasticidin
In short: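 Tetracycline-induced NaV1.7 cells, whole-cell patch clamp at room temperature with compound in CsCl internal solution (pH 7.2), Ringer bath (pH 7.4). Held at −100 mV, steps to −20 mV; after baseline, four 30-s 5 Hz trains. Peak inward current at end of last train divided by baseline gives fraction remaining.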

NaV1.7 [2] = biological target: T1, NaV1.7; test: Automated patch clamp (Qube 384), external block of NaV1.7 in HEK293 cells; type: cell-based; settings: compound in external solution, read-out: Nav1.7 Extracellular Inhibition (IC50)
Protocol: NaV1.7 was expressed in HEK293 cells upon induction with tetracycline. Cells were cultured in DMEM containing 10% dialyzed Fetal Bovine Serum (VWR, Radnor, Pa.), 1% Glutamax (VWR, Radnor, Pa.), 1% Penicillin-Streptomycin (VWR, Radnor, Pa.), 100 mg/L Hygromycin (Thermo Fisher Scientific, Waltham, Mass. and 5 mg/L Blasticidin (Alfa Aesar, Haverhill, Mass.). Cells were grown and maintained at 37° C. in a humidified environment containing 10% CO2 in air. Cells were detached from the culture flask for passage and harvested using 0.05% Trypsin-EDTA (Thermo Fisher Scientific, Waltham, Mass.). To induce NaV1.7, cells were induced with tetracycline (0.1-1 μg/mL, IBI Scientific, Peosta, Iowa) the day before recording.
Before experiments, cells were washed with DPBS (VWR, Radnor, Pa.), digested with Detachin (VWR Radnor, Pa.) and then triturated 10 times in CHO Serum-Free Media (VWR Radnor, Pa.) to resuspend the cells and to break apart cell aggregates. Cells were counted and the final concentration was set at 2-5 million cells per mL.
The intracellular solution contained the following: 140 mM CsF, 1 mM/5 mM EGTA/CsOH, 10 mM HEPES, 10 mM NaCl, adjusted to pH 7.3 with CsOH, and osmolality to 320 with sucrose. The external solution contained the following: 145 mM NaCl, 4 mM KCl, 1 mM MgCl2, 2 mM CaCl2, 10 mM HEPES, 10 mM Glucose, adjusted to pH 7.4 with CsOH and osmolality to 305 with sucrose. All chemicals are from Sigma-Aldrich, St. Louis, Mo. In order to test the degree of internal block by test compounds, the compounds were dissolved in internal solution at the indicated test concentration. […] In order to test the degree of external block by test compounds the compounds were dissolved in external solution at the indicated test concentration.
Automated Patch Clamps were performed on Qube 384 (Sophion Bioscience, Woburn Mass.) with multihole Qchips at a temperature setting of 22 degrees. The whole cells configuration was formed with default Qube seal and break-in parameter. The membrane potential was held at −100 mV before the voltage protocol began. Two voltage protocols were followed.
Step 1: Cells were held at −100 mV with a depolarized pulse to −20 mV for 10 ms, the interval was set at 5 s. Currents were corrected by default leak subtraction from every pulse. The duration was set at 5 mins.
Step 2: Cells were held at −100 mV with a depolarized pulse to −20 mV for 10 ms. The frequency was 5 Hz. Currents were corrected by leak subtraction calculated before step 2. The duration was set at 4 mins.
After Step 2, the external solution was changed with solutions containing test compounds. Qchips were held at −100 mV without pulsing. The total solution switching time was 8 minutes. After the external solution exchange, cells were recorded using the same procedure as step 2 for 10 minutes.
Data analysis was performed by Sophion Analyzer. Data were corrected with control cells (Non-Drug). The IC50 data were plotted with DR-plots/Hill function (a dose-response plot with a Hill fit).

T1 sequence (Q15858 whole entry): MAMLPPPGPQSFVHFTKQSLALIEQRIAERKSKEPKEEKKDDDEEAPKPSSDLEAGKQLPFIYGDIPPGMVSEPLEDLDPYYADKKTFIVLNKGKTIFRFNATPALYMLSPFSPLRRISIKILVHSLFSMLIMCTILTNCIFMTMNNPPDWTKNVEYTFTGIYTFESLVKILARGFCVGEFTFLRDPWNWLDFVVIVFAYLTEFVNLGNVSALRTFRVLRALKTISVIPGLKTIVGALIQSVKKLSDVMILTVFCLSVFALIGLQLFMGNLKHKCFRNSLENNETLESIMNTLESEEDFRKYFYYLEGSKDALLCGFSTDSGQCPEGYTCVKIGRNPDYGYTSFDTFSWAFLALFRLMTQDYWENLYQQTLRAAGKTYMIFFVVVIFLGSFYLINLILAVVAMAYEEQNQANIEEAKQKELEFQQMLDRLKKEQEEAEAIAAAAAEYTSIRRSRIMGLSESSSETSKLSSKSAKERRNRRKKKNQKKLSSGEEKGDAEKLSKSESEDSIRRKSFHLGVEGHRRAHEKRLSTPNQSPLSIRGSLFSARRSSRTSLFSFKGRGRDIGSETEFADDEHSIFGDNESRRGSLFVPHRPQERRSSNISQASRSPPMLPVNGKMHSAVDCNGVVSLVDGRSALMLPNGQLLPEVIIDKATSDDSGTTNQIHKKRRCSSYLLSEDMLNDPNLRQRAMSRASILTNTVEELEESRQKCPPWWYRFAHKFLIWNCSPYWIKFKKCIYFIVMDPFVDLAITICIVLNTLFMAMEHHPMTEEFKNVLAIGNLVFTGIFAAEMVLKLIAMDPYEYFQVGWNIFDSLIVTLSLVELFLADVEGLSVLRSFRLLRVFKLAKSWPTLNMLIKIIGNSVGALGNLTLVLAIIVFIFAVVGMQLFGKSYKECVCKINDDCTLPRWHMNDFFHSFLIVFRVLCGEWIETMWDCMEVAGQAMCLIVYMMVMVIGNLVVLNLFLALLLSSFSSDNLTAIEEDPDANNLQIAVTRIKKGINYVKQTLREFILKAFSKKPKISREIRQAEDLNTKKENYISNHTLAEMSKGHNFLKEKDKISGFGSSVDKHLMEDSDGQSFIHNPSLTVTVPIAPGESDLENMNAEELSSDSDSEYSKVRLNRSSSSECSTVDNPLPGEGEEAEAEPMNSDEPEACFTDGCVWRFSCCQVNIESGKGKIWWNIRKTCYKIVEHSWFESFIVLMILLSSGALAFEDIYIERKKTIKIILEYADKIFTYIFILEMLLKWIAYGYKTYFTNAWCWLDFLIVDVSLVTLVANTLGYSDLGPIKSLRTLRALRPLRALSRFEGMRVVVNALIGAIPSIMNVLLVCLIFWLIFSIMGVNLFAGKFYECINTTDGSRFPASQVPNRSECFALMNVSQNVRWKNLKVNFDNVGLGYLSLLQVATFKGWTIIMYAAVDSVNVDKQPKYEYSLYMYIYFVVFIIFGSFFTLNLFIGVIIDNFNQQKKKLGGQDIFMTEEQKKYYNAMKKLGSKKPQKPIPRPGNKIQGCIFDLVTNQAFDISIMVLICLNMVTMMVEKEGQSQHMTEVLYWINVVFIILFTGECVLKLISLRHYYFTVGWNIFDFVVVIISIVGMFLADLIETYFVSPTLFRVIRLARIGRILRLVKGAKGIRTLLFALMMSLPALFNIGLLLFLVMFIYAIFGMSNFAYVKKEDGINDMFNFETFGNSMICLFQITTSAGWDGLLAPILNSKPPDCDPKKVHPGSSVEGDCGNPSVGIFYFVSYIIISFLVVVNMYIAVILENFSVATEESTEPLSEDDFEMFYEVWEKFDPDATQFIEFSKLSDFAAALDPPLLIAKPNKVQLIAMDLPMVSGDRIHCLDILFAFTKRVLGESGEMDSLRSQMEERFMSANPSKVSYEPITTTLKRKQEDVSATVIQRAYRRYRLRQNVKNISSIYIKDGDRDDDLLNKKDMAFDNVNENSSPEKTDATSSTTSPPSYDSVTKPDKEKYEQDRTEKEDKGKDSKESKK

inhibition at 10 µM (NaV1.7 [1]) | IC50 (NaV1.7 [2]) | Structure (SMILES)
> 95% | > 100 µM | Cc1cccc(C)c1NC(=O)C[n+]1cccn1C1CCCC1 [Compound 71]
40 to 70% | > 100 µM | COC(=O)c1c(F)c[n+](CC(=O)Nc2c(C)cccc2C)cc1F [Compound 89]
70 to 95% | > 100 µM | CCCn1ccc(C)[n+]1CC(=O)Nc1c(C)cccc1C [Compound 101]
70 to 95% | 30 to 100 µM | Cc1cccc(C)c1NC(=O)C[n+]1cccc(C(F)(F)F)c1 [Compound 66]
40 to 70% | > 100 µM | Cc1cccc(C)c1NC(=O)C[n+]1cccn1CC#N [Compound 69]
70 to 95% | > 100 µM | CNC(=O)Cc1ccc[n+](CC(=O)Nc2c(C)cccc2C)c1 [Compound 33]
> 95% | > 100 µM | Cc1cccc(C)c1NC(=O)Cn1ccc[n+]1CC(=O)Nc1c(C)cccc1C [Compound 109]
> 95% | > 100 µM | Cc1cccc(C)c1NC(=O)C[n+]1cccn1CC1CC1 [Compound 73]
70 to 95% | > 100 µM | CCn1c(C)cc[n+]1CC(=O)Nc1c(C)cccc1C [Compound 104]
> 95% | > 100 µM | Cc1cccc(C)c1NC(=O)C(Cc1ccccc1)[n+]1ccccc1 (stereo not drawn) [Compound 106]
70 to 95% | 30 to 100 µM | Cc1cccc(C)c1NC(=O)C[n+]1c(C)cc(C)n1C [Compound 94]
70 to 95% | > 100 µM | CCOC(=O)c1cc(C)[n+](CC(=O)Nc2c(C)cccc2C)n1C [Compound 84]
70 to 95% | > 100 µM | COc1cc(OC)c[n+](CC(=O)Nc2c(C)cccc2C)c1 [Compound 98]
70 to 95% | > 100 µM | CCCCn1ccc[n+]1CC(=O)Nc1c(C)cccc1C [Compound 83]
> 95% | 10 to 30 µM | Cc1cccc(C)c1NC(=O)C[n+]1cc(F)cc(-c2ccccc2)c1 [Compound 77]
70 to 95% | < 10 µM | Cc1cccc(C)c1NC(=O)C[n+]1cccc(Cc2ccccc2)c1 [Compound 34]
70 to 95% | > 100 µM | CCOC(=O)Cn1cc(C)c[n+]1CC(=O)Nc1c(C)cccc1C [Compound 76]
70 to 95% | 10 to 30 µM | Cc1cccc(C)c1NC(=O)C[n+]1cccc(S(C)(=O)=O)c1 [Compound 46]
> 95% | 30 to 100 µM and > 100 µM | CCNc1ccc[n+](CC(=O)Nc2c(C)cccc2C)c1 [Compound 50]
> 95% | > 100 µM | Cc1cccc(C)c1NC(=O)C[n+]1cccc(N2CCCC2)c1 [Compound 51]
70 to 95% | 30 to 100 µM | Cc1cccc(C)c1NC(=O)C[n+]1cc2ccccc2n1C [Compound 54]
> 95% | > 100 µM | CCOC(=O)CCCn1ccc[n+]1CC(=O)Nc1c(C)cccc1C [Compound 75]
70 to 95% | > 100 µM | Cc1cccc(C)c1NC(=O)C(CC(C)C)[n+]1ccccc1 (stereo not drawn) [Compound 108]
< 40% | > 100 µM | CCn1ccc(C)[n+]1CC(=O)Nc1c(C)cccc1C [Compound 95]
> 95% | 30 to 100 µM | Cc1cccc(C)c1NC(=O)C[n+]1cc(OCc2ccccc2)ccc1Cl [Compound 103]
70 to 95% | > 100 µM | CCCn1c(C)cc[n+]1CC(=O)Nc1c(C)cccc1C [Compound 81]
70 to 95% | 10 to 30 µM | Cc1cccc(C)c1NC(=O)C[n+]1cccc(S(=O)(=O)N(C)C)c1 [Compound 47]
